ChEMBL document CHEMBL1201862, “PubChem BioAssay data set” (2004)
Calls of active or inactive are those of the source.

What was measured:
[1] = growth suppression of beta-catenin-knockout colon cells, dose response, cell-based, HCT116, human colon tumor (AID 1045); type: functional;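 further: HCT116 colon tumor cells with beta catenin knocked out; cells exposed to compound for 60 hours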
[2] = biological target: Beta-2 adrenergic receptor (Homo sapiens, UniProt P07550); experiment: beta2AR agonists driving receptor internalization, dose response, cell-based, FAP fluorogen, flow cytometry, cherry pick 1 (AID 588763); type: functional
[3] = biological target: G-protein coupled receptor 55 (Homo sapiens, UniProt Q9Y2T6); experiment: GPR55 agonists via beta-arrestin recruitment, primary screen, imaging, U2OS cells, beta-arrestin-GFP redistribution (AID 1961); type: functional
G-protein coupled receptor 55, sequence (Q9Y2T6 whole entry): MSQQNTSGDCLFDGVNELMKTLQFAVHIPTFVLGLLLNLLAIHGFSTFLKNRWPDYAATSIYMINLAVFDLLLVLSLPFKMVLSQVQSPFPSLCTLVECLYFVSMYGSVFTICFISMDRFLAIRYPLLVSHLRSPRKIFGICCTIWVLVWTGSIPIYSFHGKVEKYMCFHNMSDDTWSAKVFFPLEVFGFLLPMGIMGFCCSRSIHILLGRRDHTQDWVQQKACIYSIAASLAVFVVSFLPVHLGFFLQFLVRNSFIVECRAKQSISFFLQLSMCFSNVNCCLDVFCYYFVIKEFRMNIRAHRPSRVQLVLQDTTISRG

[4] = growth suppression of PTEN-null colon cells, dose response, cell-based, HCT116 PTEN knockout (AID 1047); type: functional;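 further: HCT116 colon tumor cells with PTEN knocked out; cells exposed to compound for 60 hours before readout; potency for loss of cell viability measured by luminescence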
[5] = growth induction of Burl-1 ts yeast mutant, dose response, counter-screen for SUMOylation pathway inhibitor project, whole organism, S. cerevisiae, luminescence (AID 463199); type: functional
[6] = biological target: CAAX prenyl protease 2 (Homo sapiens, UniProt Q9Y256); experiment: human Rce1 protease inhibitors, dose response, biochemical, yeast membranes, quenched-peptide fluorescence, cherry-pick (AID 588849)
CAAX prenyl protease 2, sequence (Q9Y256 whole entry): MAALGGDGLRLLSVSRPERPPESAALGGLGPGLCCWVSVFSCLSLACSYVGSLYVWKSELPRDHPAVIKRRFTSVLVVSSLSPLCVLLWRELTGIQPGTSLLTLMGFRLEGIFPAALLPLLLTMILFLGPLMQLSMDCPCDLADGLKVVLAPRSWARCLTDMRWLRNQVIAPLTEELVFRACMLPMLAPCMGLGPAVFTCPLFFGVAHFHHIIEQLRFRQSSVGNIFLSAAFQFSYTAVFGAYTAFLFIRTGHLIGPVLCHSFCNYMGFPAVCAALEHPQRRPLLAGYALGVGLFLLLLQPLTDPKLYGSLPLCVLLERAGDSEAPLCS

[7] = HEp-2 cell cytotoxicity, dose response, cytotoxicity control for RSV inhibitor project, HTS (AID 2410); type: functional; settings: human respiratory syncytial virus
[8] = test system: HEK293; experiment: cells; settings: Homo sapiens
[9] = biological target: Voltage-dependent T-type calcium channel subunit alpha-1H (Homo sapiens, UniProt O95180); type: functional;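 further: channel activity triggered by adding a high calcium stimulation buffer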
[10] = cells
[11] = Luminescence Cell-Based Dose Retest to Confirm Inhibitors of Cancer Stem Cells. [Related pubchem assays (depositor defined):AID2717, AID2721]; type: functional; settings: Homo sapiens
[12] = test system: HEK293; experiment: cells; settings: Homo sapiens; remark: listed apart in the source
[13] = cytotoxicity toward NIH3T3 fibroblasts, dose response, counter-screen, cell-based, ATP luminescence, mouse fibroblasts (AID 2010); type: functional;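 further: cells exposed to compound for about 90 hours before reading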
[14] = inhibitors of intracellular T. cruzi replication, confirmation, NIH3T3 host cells, beta-gal luminescence (AID 2044); type: functional, cell-based;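 further: intracellular parasites grown in NIH/3T3 mouse fibroblasts as host cells; luminescent beta-galactosidase reporter signal from transgenic T. cruzi replicating inside host cells; inhibitors lower the luminescence signal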
[15] = test system: A-375; experiment: MITF: Counter assay: A375 proliferation Measured in Cell-Based System Using Plate Reader - 2084-03_Inhibitor_Dose_DryPowder_Activity. [Related pubchem assays (depositor defined):AID488944]; type: functional; settings: Homo sapiens
[16] = test system: A-375; experiment: A375 melanoma cell viability reduction, dose response, counter-screen for MITF modulator project, cherry-pick samples, set 2 (AID 540335); type: functional, cell-based; settings: Homo sapiens
[17] = biological target: Voltage-gated inwardly rectifying potassium channel KCNH2 (Homo sapiens, UniProt Q12809); experiment: hERG protection from proarrhythmic block, potency, dose response, cell-based, thallium flux (AID 2121); type: ADME
Voltage-gated inwardly rectifying potassium channel KCNH2, sequence (Q12809 whole entry): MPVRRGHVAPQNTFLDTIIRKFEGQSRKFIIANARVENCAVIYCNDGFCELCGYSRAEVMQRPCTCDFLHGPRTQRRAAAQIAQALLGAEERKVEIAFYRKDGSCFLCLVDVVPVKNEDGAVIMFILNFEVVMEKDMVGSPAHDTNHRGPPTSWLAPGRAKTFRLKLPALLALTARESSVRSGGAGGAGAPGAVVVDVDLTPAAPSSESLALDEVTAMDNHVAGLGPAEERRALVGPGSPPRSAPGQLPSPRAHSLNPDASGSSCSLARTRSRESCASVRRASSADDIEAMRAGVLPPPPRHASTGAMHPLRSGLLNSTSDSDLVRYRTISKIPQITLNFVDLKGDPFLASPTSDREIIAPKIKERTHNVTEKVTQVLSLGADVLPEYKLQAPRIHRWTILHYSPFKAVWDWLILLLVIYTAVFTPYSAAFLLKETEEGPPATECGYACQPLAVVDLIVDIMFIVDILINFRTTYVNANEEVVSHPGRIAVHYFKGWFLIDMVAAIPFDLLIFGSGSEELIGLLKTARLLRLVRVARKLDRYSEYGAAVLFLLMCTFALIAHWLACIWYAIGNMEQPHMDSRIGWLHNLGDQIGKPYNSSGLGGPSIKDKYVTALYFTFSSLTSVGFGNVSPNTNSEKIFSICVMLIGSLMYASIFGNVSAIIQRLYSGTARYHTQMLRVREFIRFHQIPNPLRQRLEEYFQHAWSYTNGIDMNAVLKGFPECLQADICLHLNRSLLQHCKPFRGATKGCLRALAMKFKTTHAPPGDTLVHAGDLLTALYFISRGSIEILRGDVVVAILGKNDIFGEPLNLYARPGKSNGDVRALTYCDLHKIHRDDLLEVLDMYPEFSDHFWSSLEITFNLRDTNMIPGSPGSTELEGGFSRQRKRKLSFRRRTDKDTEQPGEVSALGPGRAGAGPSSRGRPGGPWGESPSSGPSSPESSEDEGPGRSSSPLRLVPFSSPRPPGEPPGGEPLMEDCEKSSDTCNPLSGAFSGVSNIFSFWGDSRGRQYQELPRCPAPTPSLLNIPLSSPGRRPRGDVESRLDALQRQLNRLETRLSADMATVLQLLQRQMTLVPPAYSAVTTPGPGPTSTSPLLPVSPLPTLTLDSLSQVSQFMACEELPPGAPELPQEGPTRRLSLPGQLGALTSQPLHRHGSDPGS

[18] = biological target: T1, Streptokinase A (Streptococcus pyogenes serotype M1, UniProt P10520); experiment: S. pyogenes streptokinase expression inhibitors, potency, dose response, plasminogen activation absorbance, OD405 (AID 1914); type: functional, Streptococcus pyogenes M1 GAS;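 further: secreted streptokinase activity via plasminogen activation per viability signal from cell pellet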
T1 sequence (P10520 whole entry): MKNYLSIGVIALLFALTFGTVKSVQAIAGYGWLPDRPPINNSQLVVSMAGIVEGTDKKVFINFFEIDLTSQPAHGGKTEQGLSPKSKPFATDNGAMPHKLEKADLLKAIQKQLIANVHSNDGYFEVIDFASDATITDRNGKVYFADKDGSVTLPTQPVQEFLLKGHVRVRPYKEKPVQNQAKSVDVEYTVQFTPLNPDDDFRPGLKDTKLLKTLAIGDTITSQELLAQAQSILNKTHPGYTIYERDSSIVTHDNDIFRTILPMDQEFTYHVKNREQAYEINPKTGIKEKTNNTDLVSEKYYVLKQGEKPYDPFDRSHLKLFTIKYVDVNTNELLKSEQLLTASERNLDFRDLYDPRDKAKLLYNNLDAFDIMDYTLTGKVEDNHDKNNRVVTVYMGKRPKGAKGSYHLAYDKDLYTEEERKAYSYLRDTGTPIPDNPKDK

[19] = test system: Streptococcus; experiment: Group A Streptococcus viability loss, dose response, counter-screen for streptokinase expression inhibitor project, luminescence, BacTiterGlo (AID 1915); type: functional, organism-based;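 further: potency for reduction of bacterial viability or growth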
[20] = cytotoxicity in MIN6 insulinoma cells, dose response, cytotoxicity control, cell-based, mouse insulinoma (AID 2122); type: functional;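 further: confirmatory high-throughput counterscreen run to flag cytotoxic compounds; mouse MIN-6 beta cells carrying an insulin promoter eGFP reporter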
[21] = test system: HEK293; experiment: inhibitors of LMP1-driven NF-kB reporter, dose response, cell-based, HEK293, luciferase, cherry-pick (AID 588343); type: functional; settings: Homo sapiens
[22] = test system: Streptococcus sp. 'group A'; experiment: growth inhibition of control SK(-) GAS strain, dose response, counter-screen for streptokinase expression inhibitor project, luminescence, kanamycin, BacTiterGlo, confirmation (AID 1900); type: functional, organism-based
[23] = insulin promoter down-regulators in MIN6 cells, imaging, high-content screening, mouse beta cells (AID 1628); type: functional
[24] = NIH-3T3 fibroblast cytotoxicity, dose response, cytotoxicity control, cell-based, fluorescence, Alamar Blue, secondary assay (AID 2327); type: functional;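 further: NIH-3T3 mouse fibroblasts cultured with fluconazole at 8 µg/mL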
[25] = C. albicans growth with fluconazole, confirmation, fluorescence, retest (AID 2467); type: functional, cell-based
[26] = biological target: Serine/threonine-protein phosphatase (Candida dubliniensis (strain CD36 / CBS 7987 / NCPF 3949 / NRRLY-17841) (Yeast), UniProt B9W6M3); experiment: calcineurin pathway inhibitors in yeast reporter, dose response, S. cerevisiae, CDRE-lacZ, luminescence, secondary (AID 2388); type: functional, cell-based;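 further: yeast reporter cells carrying a calcineurin-responsive lacZ construct stimulated with calcium chloride; luminescent beta-galactosidase reporter signal in whole cells rather than isolated phosphatase activity; potency for inhibition where a drop in reporter signal means calcineurin blockade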
[27] = biological target: T2, Calpain-2 catalytic subunit (Sus scrofa, UniProt P43367); experiment: pig calpain II inhibitor potency, dose response, biochemical, fluorogenic peptide substrate (AID 1420); type: functional
T2 sequence (P43367 whole entry): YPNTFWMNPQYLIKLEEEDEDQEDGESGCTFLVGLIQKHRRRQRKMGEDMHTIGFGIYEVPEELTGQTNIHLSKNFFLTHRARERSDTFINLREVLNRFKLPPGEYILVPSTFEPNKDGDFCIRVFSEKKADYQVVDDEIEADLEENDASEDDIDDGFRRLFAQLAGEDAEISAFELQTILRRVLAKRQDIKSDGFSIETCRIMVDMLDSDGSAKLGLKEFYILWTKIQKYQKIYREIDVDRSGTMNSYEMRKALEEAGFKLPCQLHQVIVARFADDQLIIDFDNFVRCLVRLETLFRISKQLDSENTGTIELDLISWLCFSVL

[28] = biological target: ATP-dependent molecular chaperone HSP82 (Candida albicans (strain WO-1) (Yeast), UniProt C4YTQ8); experiment: loss of DOC-induced GRE-beta-galactosidase reporter signal, dose response, Hsp90 inhibitor project, S. cerevisiae, luminescence (AID 2400); type: functional, cell-based;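 further: beta-galactosidase luminescence from glucocorticoid response element reporter as proxy for Hsp90 function; inhibitor potency where signal loss means Hsp90 inhibition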
ATP-dependent molecular chaperone HSP82, sequence (C4YTQ8 whole entry): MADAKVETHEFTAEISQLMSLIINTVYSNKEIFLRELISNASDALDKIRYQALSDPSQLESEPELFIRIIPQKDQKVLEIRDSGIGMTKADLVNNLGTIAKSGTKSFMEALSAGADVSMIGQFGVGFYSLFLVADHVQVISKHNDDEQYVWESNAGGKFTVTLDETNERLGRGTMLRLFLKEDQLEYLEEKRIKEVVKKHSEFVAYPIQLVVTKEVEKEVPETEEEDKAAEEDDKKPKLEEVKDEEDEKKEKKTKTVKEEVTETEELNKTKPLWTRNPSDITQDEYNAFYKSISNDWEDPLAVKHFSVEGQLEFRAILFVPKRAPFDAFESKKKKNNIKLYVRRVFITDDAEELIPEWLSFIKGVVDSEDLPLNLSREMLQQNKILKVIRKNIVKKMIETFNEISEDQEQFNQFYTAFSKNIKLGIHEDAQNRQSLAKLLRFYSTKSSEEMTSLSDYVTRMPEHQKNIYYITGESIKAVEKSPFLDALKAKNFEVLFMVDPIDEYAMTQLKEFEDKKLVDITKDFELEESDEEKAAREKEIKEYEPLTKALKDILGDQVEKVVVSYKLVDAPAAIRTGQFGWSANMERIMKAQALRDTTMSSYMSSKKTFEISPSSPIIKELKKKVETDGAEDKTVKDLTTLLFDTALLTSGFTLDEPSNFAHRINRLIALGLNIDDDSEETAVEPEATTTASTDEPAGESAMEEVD

[29] = biological target: Delta-type opioid receptor (Homo sapiens, UniProt P41143); experiment: Counterscreen for agonists of heterodimerization of the mu 1 (OPRM1) and delta 1 (OPRD1) opioid receptors: Luminescence-based cell-based high throughput dose response assay to identify agonists of OPRD1 homodimerization. [Related pubchem assays (depositor defined):AID504326, AID504355, AID504692, AID504904, AID504905]; type: functional
[30] = biological target: T3, Microphthalmia-associated transcription factor (Homo sapiens, UniProt O75030); experiment: TRPM1 promoter luciferase signal decrease, dose response, MITF inhibitor project, cell-based, SK-MEL-5, cherry-picked, set 3 (AID 493073); type: functional
T3 sequence (O75030 whole entry): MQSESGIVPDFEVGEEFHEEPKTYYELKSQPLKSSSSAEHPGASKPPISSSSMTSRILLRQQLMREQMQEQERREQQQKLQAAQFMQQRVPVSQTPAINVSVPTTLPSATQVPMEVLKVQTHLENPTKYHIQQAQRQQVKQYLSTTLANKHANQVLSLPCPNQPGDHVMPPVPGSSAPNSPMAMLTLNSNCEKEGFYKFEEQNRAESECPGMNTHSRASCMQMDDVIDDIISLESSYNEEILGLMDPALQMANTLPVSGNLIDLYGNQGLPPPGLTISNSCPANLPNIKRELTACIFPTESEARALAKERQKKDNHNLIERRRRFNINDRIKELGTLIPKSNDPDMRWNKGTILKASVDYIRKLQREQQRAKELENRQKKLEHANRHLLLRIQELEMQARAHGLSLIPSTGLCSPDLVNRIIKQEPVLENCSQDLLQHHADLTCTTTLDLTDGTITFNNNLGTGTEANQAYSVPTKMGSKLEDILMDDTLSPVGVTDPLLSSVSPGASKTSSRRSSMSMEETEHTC

[31] = biological target: Mu-type opioid receptor (Homo sapiens, UniProt P35372); experiment: Counterscreen for agonists of heterodimerization of the mu 1 (OPRM1) and delta 1 (OPRD1) opioid receptors: Luminescence-based cell-based high throughput dose response assay to identify agonists of OPRM1 homodimerization.; type: functional;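 further: U2OS cells expressing OPRM1 and beta-arrestin as split beta-galactosidase partners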
[32] = biological target: 5-hydroxytryptamine receptor 5A (Homo sapiens, UniProt P47898); experiment: Counterscreen for agonists of OPRM1-OPRD1 heterodimerization: luminescence-based cell-based high throughput dose response assay to identify agonists of 5-hydroxytryptamine (serotonin) 5A receptor (HTR5A). [Related pubchem assays (depositor defined):AID504326, AID504355, AID504692, AID504904, AID504905]; type: functional
5-hydroxytryptamine receptor 5A, sequence (P47898 whole entry): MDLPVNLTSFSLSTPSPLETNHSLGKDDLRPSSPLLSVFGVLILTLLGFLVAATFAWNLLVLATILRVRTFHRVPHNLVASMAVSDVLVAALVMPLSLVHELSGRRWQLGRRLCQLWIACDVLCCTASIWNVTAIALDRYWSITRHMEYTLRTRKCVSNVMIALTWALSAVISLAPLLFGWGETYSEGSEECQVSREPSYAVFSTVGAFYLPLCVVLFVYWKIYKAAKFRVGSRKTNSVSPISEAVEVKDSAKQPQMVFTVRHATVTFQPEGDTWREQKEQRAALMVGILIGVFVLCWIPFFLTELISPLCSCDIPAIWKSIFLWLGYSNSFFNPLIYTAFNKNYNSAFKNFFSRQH

[33] = Luminescence Cell-Based Dose Response Follow up to Identify Inhibitors of Platelet Dense Granule Release. [Related pubchem assays (depositor defined):AID1663, AID1678, AID2398]; type: functional
[34] = biological target: Phospholipase D2 (Homo sapiens, UniProt O14939); experiment: PLD2 inhibitor potency in cells, dose response (AID 602147); type: functional;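 further: cellular assay in HEK293 cells overexpressing GFP-tagged PLD2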
Phospholipase D2, sequence (O14939 whole entry): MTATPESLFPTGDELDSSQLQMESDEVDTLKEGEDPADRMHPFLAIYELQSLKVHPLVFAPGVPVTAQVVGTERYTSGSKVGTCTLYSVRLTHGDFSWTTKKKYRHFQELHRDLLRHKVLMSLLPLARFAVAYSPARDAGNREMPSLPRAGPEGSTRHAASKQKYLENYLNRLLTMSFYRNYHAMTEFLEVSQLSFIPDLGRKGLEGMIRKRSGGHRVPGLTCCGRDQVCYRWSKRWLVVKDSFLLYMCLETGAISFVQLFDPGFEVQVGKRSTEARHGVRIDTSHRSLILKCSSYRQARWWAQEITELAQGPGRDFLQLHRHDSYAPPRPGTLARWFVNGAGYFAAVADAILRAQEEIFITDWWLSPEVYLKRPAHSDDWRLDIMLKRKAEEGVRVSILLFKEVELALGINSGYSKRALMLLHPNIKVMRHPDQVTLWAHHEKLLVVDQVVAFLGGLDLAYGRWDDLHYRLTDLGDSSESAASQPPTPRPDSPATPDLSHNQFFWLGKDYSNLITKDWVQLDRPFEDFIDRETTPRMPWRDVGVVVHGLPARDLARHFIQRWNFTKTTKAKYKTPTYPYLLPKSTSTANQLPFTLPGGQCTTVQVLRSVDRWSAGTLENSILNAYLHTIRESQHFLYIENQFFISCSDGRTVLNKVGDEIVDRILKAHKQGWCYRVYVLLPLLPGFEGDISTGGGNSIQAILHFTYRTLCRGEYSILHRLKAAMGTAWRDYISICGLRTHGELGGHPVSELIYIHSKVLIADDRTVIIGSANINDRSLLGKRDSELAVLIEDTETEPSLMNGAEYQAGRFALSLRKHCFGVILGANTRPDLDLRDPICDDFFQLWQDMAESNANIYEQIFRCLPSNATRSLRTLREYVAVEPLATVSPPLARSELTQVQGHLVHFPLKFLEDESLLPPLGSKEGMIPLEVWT

[35] = biological target: Phospholipase D1 (Homo sapiens, UniProt Q13393); experiment: PLD1 inhibitor potency in cells, dose response (AID 602151); type: functional;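 further: cellular PLD1 assay in Calu-1 cells stimulated with PMA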
Phospholipase D1, sequence (Q13393 whole entry): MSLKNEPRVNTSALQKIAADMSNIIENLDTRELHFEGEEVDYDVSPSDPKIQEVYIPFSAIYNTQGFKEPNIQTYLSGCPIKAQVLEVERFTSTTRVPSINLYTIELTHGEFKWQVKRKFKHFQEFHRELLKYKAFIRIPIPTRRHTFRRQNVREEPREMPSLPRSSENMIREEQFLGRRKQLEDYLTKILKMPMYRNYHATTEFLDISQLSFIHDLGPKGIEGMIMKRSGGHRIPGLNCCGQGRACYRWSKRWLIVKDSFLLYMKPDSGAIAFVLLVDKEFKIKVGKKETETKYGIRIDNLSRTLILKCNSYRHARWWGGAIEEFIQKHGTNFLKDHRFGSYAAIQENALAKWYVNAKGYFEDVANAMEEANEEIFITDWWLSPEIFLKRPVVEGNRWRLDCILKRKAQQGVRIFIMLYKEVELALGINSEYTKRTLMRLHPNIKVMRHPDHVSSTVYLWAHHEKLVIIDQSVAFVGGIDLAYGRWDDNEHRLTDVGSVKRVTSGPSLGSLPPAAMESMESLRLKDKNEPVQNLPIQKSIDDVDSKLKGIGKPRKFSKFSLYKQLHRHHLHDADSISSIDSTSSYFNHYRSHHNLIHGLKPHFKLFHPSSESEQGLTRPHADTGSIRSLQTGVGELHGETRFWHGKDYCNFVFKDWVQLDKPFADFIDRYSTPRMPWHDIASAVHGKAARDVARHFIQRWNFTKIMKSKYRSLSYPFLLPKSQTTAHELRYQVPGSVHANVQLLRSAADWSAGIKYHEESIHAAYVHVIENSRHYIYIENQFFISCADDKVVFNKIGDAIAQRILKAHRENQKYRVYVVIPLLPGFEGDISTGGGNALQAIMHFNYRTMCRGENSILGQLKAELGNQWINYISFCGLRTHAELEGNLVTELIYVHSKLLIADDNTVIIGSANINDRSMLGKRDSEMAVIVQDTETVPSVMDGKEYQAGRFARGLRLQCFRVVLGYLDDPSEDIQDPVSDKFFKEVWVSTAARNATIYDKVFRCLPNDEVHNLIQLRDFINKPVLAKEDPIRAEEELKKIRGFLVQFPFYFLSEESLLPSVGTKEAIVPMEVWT

[36] = test system: Candida albicans; experiment: growth inhibition of resistant C. albicans, dose response, CaCi-8, fluconazole, Alamar Blue, dry powder (AID 488807); type: functional, organism-based

With `COc1ccc(C2C(C#N)=C(N)Oc3c2sc2nc(C)cc(C)c32)cc1` (centres undefined) the EC50 [1] was 5.01 µM (active), the EC50 [2] was 9.58 µM (inactive) and the EC50 [3] was 3.41 µM (active). For the same compound, the EC50 [4] was 4.6 µM (active).

With `O=C(O)/C=C\C(=O)NC1CCCCC1` the AC50 [5] was 54.1 µM (active).

For `CCOC(=O)C1CCCN(S(=O)(=O)c2cc3nc(O)c(O)nc3cc2C)C1` (centres undefined), the AC50 [6] was 21.8 µM (active).

In the case of `CCN(CC)S(=O)(=O)c1ccc2c(c1)C(=NO)c1cc(S(=O)(=O)N(CC)CC)ccc1-2`, the CC50 [7] is reported as 9.81 µM (active), the EC50 [1] is reported as 7.08 µM (active) and the EC50 [8] is reported as > 59.6 µM (inactive). The EC50 [9] was 1.6 µM (active), the IC50 [10] was 5.19 µM (active) and the AC50 [11] was 0.742 µM (active). For the same compound, the EC50 [12] was > 59.6 µM (inactive), the EC50 [13] was < 6 µM (inconclusive) and the EC50 [14] was 0.84 µM (active). The EC50 [4] was 6.41 µM (active).

In the case of `CCOc1ccccc1-c1nc(-c2ccc(C)nc2OC)no1`, the AC50 [15] is reported as > 35 µM (active) and the AC50 [16] is reported as > 35 µM (active).

In the case of `Oc1c(N=NC(S)=Nc2ccccc2F)c2ccccc2n1Cc1ccccc1`, the EC50 [17] is reported as 0.89 µM (active), the EC50 [18] is reported as > 150 µM (not active) and the EC50 [19] is reported as 6.93 µM (active). The IC50 [20] was 10.1 µM (inactive), the AC50 [21] was 3.07 µM (active) and the EC50 [22] was 0.562 µM (active). The IC50 [23] was 6.95 µM (active).

With `CCOc1ccc(NC(S)=NNC(=O)c2ccc(Br)cc2)cc1` the EC50 [24] was > 160 µM (inactive), the EC50 [25] was 0.688 µM (active) and the EC50 [26] was > 180 µM (inactive). The IC50 [27] was > 50 µM (not active) and the EC50 [28] was > 160 µM (inactive).

With `Cc1ccc(NC(=O)c2ncn(CCCN[C@H](C)c3cccc4ccccc34)n2)cc1C` the EC50 [29] was > 92.4 µM (inactive), the AC50 [15] was 25.8 µM (active) and the AC50 [30] was 22.7 µM (active). For the same compound, the EC50 [31] was > 10.3 µM (inactive) and the EC50 [32] was > 92.4 µM (inactive).

In the case of `CC(=O)Nc1c(C#N)c(-c2ccccc2)c(C#N)c(=O)n1-c1ccc(C)cc1`, the EC50 [33] is reported as 129 µM (active).

In the case of `C[C@@H](CN1CCC(n2c(=O)[nH]c3cc(F)ccc32)CC1)NC(=O)c1ccc(F)c(F)c1`, the IC50 [34] is reported as 0.84 µM (active) and the IC50 [35] is reported as 0.012 µM (active).

For `COC(=O)Cn1nc(-c2ccc(C)cc2)c2ccccc21`, the AC50 [36] was 1.45 µM (active).
